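Step 1: Grow cells in 96-well plates. Step 2: Expose to compound for 48 hours at 5 concentrations. Step 3: Interpolate endpoints linearly; if unreached, use highest concentration. TGI is the concentration that stops growth completely.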
Assays:
Test in all cases: NCI tumour cell line growth inhibition, 48 h
SF-268 CNS = test system: SF-268 CNS
MDA-MB-231 breast = test system: MDA-MB-231 breast
DU-145 prostate = test system: DU-145 prostate
SNB-75 CNS = test system: SNB-75 CNS
RPMI-8226 leukemia = test system: RPMI-8226 leukemia
SK-OV-3 ovarian = test system: SK-OV-3 ovarian
SN12C renal = test system: SN12C renal
HT29 colon = test system: HT29 colon
UO-31 renal = test system: UO-31 renal
MALME-3M melanoma = test system: MALME-3M melanoma
UACC-62 melanoma = test system: UACC-62 melanoma
K-562 leukemia = test system: K-562 leukemia
NCI-H522 lung = test system: NCI-H522 lung
SK-MEL-28 melanoma = test system: SK-MEL-28 melanoma
CCRF-CEM leukemia = test system: CCRF-CEM leukemia
HCT-116 colon = test system: HCT-116 colon
EKVX NSCLC = test system: EKVX NSCLC
HL-60(TB) leukemia = test system: HL-60(TB) leukemia
MDA-MB-435 = test system: MDA-MB-435
HCT-15 colon = test system: HCT-15 colon
T-47D breast = test system: T-47D breast
MDA-N = test system: MDA-N
SR leukemia = test system: SR leukemia
HCC-2998 colon = test system: HCC-2998 colon
U251 CNS = test system: U251 CNS
ACHN renal = test system: ACHN renal
HOP-62 NSCLC = test system: HOP-62 NSCLC
SF-539 CNS = test system: SF-539 CNS
MOLT-4 leukemia = test system: MOLT-4 leukemia
MCF7 breast = test system: MCF7 breast
A498 renal = test system: A498 renal
M14 melanoma = test system: M14 melanoma

Measured: TGI

CCCCCOP(=O)(OCCCCC)C(NC(C)=O)(C(=O)OCC)C(F)(F)F (configuration not stated)
> 100 µM: all assays above
